Where “and” joins values, the source holds several entries; their conditions need not be identical. Identical values can stand only once.
Key:
HepG2 cells [1] = assay: MTT cytotoxicity assay, HepG2; type: cell-based; settings: Homo sapiens, HepG2, 48 h, read-out: Cytotoxic IC50 HepG2
Experimental: (§3) Using RPMI-1640 medium L-Glutamine (Lonza Verviers SPRL, Belgium, cat#12-604F), we successfully cultured liver (HepG2), breast (MCF-7), and lung (A549) cells bought from the National Research Institute, Egypt. Each culture was supplemented with 10% foetal bovine serum (FBS, Sigma-Aldrich, MO, USA) and 1% penicillin-streptomycin (Lonza, Belgium). Using a 96-well plate, cells were seeded at a density of 5,000 cells per well in triplicate. The chemicals were added to the cells on day 2 at doses of (0.01, 0.1, 1, 10, and 100 M). To determine cell viability, MTT solution was used after 48 h (Promega, USA)[84]. Using GraphPad Prism 7, as was previously reported in, we computed the survival rate in comparison to the control and obtained the IC50 values[85].

A549 cells = assay: MTT cytotoxicity assay, A549; type: cell-based; settings: Homo sapiens, A549, 48 h, read-out: Cytotoxic IC50 A549
Experimental: as §3

MCF-7 cells = assay: MTT cytotoxicity assay, MCF-7; type: cell-based; settings: Homo sapiens, MCF7, 48 h, read-out: Cytotoxic IC50 MCF-7
Experimental: as §3

Bax = assay: RT-PCR gene expression, Bax; type: cell-based; settings: HepG2 cells, IC50, 48 h; normalized to β-actin; untreated = 1
Experimental: (§1) The gene expression of P53, Bax, Caspasses-3,8,9 as proapoptotic genes and Bcl-2 as an anti-apoptotic gene were evaluated to investigate the apoptotic pathway. […] Afterwards, the standard operating procedure called for an RT-PCR reaction to be performed. The Ct values were then used to determine the relative expression of each gene in each sample, normalised to the β-actin as house-keeping gene[90–92].

Topoisomerase II = biological target: T1, Topoisomerase II (Homo sapiens, UniProt P11388); assay: Topoisomerase II inhibition assay; type: biochemical; settings: average of three independent replicates, five concentrations
T1 construct: purchased TopoGEN, Inc., Columbus
T1 sequence (P11388 whole entry): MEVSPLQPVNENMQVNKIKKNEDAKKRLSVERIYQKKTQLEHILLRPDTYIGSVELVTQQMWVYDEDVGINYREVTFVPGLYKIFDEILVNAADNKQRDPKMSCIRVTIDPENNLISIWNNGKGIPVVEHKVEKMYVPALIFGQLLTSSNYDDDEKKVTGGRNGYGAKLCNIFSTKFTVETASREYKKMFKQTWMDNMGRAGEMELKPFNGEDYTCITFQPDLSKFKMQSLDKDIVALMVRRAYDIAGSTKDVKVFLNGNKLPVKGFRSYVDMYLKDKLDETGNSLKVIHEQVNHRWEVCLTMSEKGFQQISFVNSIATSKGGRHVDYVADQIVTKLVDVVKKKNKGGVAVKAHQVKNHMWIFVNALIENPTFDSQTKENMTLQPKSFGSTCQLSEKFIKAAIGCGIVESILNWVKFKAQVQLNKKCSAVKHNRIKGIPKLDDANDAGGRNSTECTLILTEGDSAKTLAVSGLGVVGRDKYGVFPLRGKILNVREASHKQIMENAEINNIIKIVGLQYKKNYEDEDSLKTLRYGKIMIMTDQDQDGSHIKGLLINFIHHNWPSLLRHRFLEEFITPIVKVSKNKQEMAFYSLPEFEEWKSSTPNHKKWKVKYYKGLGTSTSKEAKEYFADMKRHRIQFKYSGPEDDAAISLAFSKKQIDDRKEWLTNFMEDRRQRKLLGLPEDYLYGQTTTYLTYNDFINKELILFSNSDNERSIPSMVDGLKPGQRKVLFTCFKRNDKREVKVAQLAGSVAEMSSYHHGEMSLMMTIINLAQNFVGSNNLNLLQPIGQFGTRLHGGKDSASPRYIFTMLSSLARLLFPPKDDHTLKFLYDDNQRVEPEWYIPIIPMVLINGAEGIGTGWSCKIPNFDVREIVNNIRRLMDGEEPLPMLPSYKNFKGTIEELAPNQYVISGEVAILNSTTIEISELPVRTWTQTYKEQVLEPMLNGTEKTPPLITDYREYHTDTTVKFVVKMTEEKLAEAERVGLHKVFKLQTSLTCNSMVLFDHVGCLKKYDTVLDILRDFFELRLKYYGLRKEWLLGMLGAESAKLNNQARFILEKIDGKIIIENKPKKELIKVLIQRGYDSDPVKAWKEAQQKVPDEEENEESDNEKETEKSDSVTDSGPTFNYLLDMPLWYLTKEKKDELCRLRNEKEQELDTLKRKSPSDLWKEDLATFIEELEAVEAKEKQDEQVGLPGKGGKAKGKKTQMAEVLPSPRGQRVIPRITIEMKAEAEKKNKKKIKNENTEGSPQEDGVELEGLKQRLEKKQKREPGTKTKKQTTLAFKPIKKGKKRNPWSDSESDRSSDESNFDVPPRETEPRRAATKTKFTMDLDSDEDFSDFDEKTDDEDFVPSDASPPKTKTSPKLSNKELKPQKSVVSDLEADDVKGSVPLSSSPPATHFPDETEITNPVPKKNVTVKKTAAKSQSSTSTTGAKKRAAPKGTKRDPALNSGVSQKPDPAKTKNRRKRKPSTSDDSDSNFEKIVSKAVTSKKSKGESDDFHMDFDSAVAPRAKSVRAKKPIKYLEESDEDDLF
Experimental: (§2) Topoisomerase II (TopoGEN, Inc., Columbus) and DNA intercalator (methyl green (20 mg) and Calfthymus DNA (10 mg) were tested for their capacity to block the enzyme’s activity. Following equation was used to determine compound inhibition percentages: 100−[A control/A treated−Control)], IC50 was determined using GraphPad prism7 using inhibition curves at five different concentrations of each compound[86].

HepG2 cells [2] = assay: Annexin V/PI staining flow cytometry (apoptosis); type: cell-based; settings: IC50 concentration, 48 h
Experimental: After incubation overnight, 6-well culture plates were populated with HepG2 cells (3–5 10^5 cells/well). […] Cells and medium supernatants were then collected and washed in ice-cold PBS. The next step was suspending the cells in 100 µL of annexin binding buffer solution "25 mM CaCl2, 1.4 M NaCl, and 0.1 M Hepes/NaOH, pH 7.4” and incubation with “Annexin V-FITC solution (1:100) and propidium iodide (PI)” at a concentration equals 10 µg/mL in the dark for 30 min. The Cytoflex FACS system was then used to acquire the stained cells. cytExpert was used for the statistical analysis.

Calfthymus DNA = assay: DNA intercalation assay (DNA/methyl green); type: binding, calf; settings: average of three independent replicates, five concentrations
Experimental: as §2

Bcl-2 = assay: RT-PCR gene expression, Bcl-2; type: cell-based; settings: HepG2 cells, IC50, 48 h; normalized to β-actin; untreated = 1
Experimental: as §1

Casp-8 = assay: RT-PCR gene expression, Casp-8; type: cell-based; settings: HepG2 cells, IC50, 48 h; normalized to β-actin; untreated = 1
Experimental: as §1

P53 = assay: RT-PCR gene expression, P53; type: cell-based; settings: HepG2 cells, IC50, 48 h; normalized to β-actin; untreated = 1
Experimental: as §1

HepG2 cells [3] = assay: DNA content flow cytometry cell cycle analysis; type: cell-based; settings: IC50 concentration, 48 h, control 39.15%
Casp-9 = assay: RT-PCR gene expression, Casp-9; type: cell-based; settings: HepG2 cells, IC50, 48 h; normalized to β-actin; untreated = 1
Experimental: as §1

Casp-3 = assay: RT-PCR gene expression, Casp-3; type: cell-based; settings: HepG2 cells, IC50, 48 h; normalized to β-actin; untreated = 1
Experimental: as §1

[4] = MTT cytotoxicity assay, HepG2; type: cell-based; settings: human, HepG2 liver cells, read-out: Cytotoxic IC50 HepG2
Experimental: as §3

[5] = MTT cytotoxicity assay, A549; type: cell-based; settings: human, A549 lung cells, read-out: Cytotoxic IC50 A549
Experimental: as §3

[6] = MTT cytotoxicity assay, MCF-7; type: cell-based; settings: human, MCF-7 breast cells, read-out: Cytotoxic IC50 MCF-7
Experimental: as §3

| melting point [°C] | SMILES | IC50 (HepG2 cells [1]) [µM] | IC50 (A549 cells) [µM] | IC50 (MCF-7 cells) [µM] | further results |
| --- | --- | --- | --- | --- | --- |
| 166 to 168 | CC(=O)OCC1OC(SC2=NC(=O)C(=Cc3ccccc3)S2)C(OC(C)=O)C(OC(C)=O)C1OC(C)=O [Compound 13a, 5-((Z)-benzylidene)-2–(2',3',4',6'-tetra-O-acetyl-β-D-glucopyranosyl)-2-thioxo-4-thiazolidinone] | 17.2 | 6.1 | 3.1 | IC50 (Topoisomerase II): 8.3 µM; IC50 (Calfthymus DNA): 22.6 µM |
| 199 to 201 | COc1cccc(/C=C2\SC(=S)NC2=O)c1O [Compound 3e] | 16.3 | 7.7 | 3.1 | – |
| 208 to 210 | O=C1NC(=S)S/C1=C\c1ccc2c(c1)OCCO2 [Compound 3c, 5-((Z)-3,4-ethylenedioxybenzylidene)-2-thioxo-4-thiazolidinone] | 11.7 | 13.7 | 7.1 | – |
| 167 to 169 | CC(=O)OCC1OC(SC2=NC(=O)C(=Cc3ccc(Cl)cc3Cl)S2)C(OC(C)=O)C(OC(C)=O)C1OC(C)=O [Compound 13b, 5-((Z)-2,4-dichlorobenzylidene)-2–(2',3',4',6'-tetra-O-acetyl-β-D-glucopyranosyl)-2-thioxo-4-thiazolidinone] | 7.2 | 10.1 | 13.1 | – |

The next lines start with the compound.

| SMILES | melting point [°C] | IC50 (HepG2 cells [1]) [µM] | IC50 (A549 cells) [µM] | IC50 (MCF-7 cells) [µM] | further results |
| --- | --- | --- | --- | --- | --- |
| O=C1NC(=S)S/C1=C\c1ccc2c(c1)OCO2 [Compound 3f, 5-((Z)-3,4-methylenedioxybenzylidene)-2-thioxo-4-thiazolidinone] | – | 8.9 | 21.1 | 12.8 | – |
| CC(=O)OC[C@H]1O[C@@H](SC2=NC(=O)/C(=C/c3ccc4c(c3)OCCO4)S2)[C@H](OC(C)=O)[C@@H](OC(C)=O)[C@@H]1OC(C)=O [Compound 13c, 5-((Z)-2,4-ethylenedioxybenzylidene)-2–(2',3',4',6'-tetra-O-acetyl-β-D-glucopyranosyl)-2-thioxo-4-thiazolidinone] | – | 21.2 | 4.1 | – | – |
| CC(=O)OC[C@H]1O[C@@H](N2C(=O)CSC2=S)[C@H](OC(C)=O)[C@@H](OC(C)=O)[C@@H]1OC(C)=O [Compound 6, 3-(2',3',4',6'-Tetra-O-acetyl-β-D-glucopyranosyl)-2-thioxo-4-thiazolidinone] | – | 0.21 | 1.7 | 11.7 | Fold Change = 2^-ΔΔCT Bax (Bax): 5.7 fold and 5.7 ± 0.26 fold; IC50 (Topoisomerase II): 6.9 µM; Activation of apoptotic cell death versus untreated control (HepG2 cells [2]): 80.7 fold; Early apoptosis (AV+/PI-) (HepG2 cells [2]): 23.07%; Late apoptosis (AV+/PI+) (HepG2 cells [2]): 11.66%; Total apoptosis (HepG2 cells [2]; untreated control 0.43%): 34.73%; IC50 (Calfthymus DNA): 19.6 µM; Fold Change = 2^-ΔΔCT Bcl-2 (Bcl-2): 0.36 fold and 0.36 ± 0.01 fold; Fold Change = 2^-ΔΔCT Casp-8 (Casp-8): 3.29 fold and 3.29 ± 0.5 fold; Fold Change = 2^-ΔΔCT P53 (P53): 6.16 fold and 6.16 ± 0.69 fold; Cell population at S-phase (HepG2 cells [3]): 49.6%; Fold Change = 2^-ΔΔCT Casp-9 (Casp-9): 6.14 fold and 6.14 ± 0.19 fold; Fold Change = 2^-ΔΔCT Casp-3 (Casp-3): 8.3 fold and 8.3 ± 0.37 fold |
| CC(=O)OC[C@H]1O[C@@H](SC2=NC(=O)CS2)[C@H](OC(C)=O)[C@@H](OC(C)=O)[C@@H]1OC(C)=O [Compound 7] | – | – | – | – | IC50 (Topoisomerase II): 9.1 µM; IC50 at 48 h [4]: 0.76 µM; IC50 (Calfthymus DNA): 29.6 µM; IC50 at 48 h [5]: 0.31 µM; IC50 at 48 h [6]: 12.4 µM |
| CSC1NC(=O)CS1 (stereo not shown) [Compound 11, 2-methylmercapto-4-thiazolidinone] | 72 to 74 | – | – | – | – |
| COc1ccc(/C=C2\SC(=S)NC2=O)cc1 [Compound 3d, 5-((Z)-4-methoxybenzylidene)-2-thioxo-4-thiazolidinone] | – | 18.1 | 7.8 | 15.1 | – |
| O=C1NC(=O)/C(=C/c2ccc(Cl)cc2Cl)S1 [Compound 14, 5-((Z)-2,4-dichlorobenzylidene)-2,4-thiazolidindione] | – | 37.3 | 31.6 | 42.2 | – |
| O=C1CSC(=S)N1CN1CCOCC1 [Compound 10, 3-morpholinomethyl-2-thioxo-4-thiazolidinone] | – | – | 36.4 | – | – |
| O=C1NC(=S)S/C1=C\c1ccc(Cl)cc1Cl [Compound 3b, 5-((Z)-2,4-dichlorobenzylidene)-2-thioxo-4-thiazolidinone] | – | 7.8 | 9.7 | 17.9 | – |
| COc1cccc2c1C(=O)c1c(O)c3c(c(O)c1C2=O)C[C@@](O)(C(=O)CO)C[C@@H]3O[C@H]1C[C@H](N)[C@H](O)[C@H](C)O1 [Doxorubicin, reference compound] | – | – | 6.62 | 7.67 | IC50 (Calfthymus DNA): 31.3 µM |

From publication PMC9848385, “Design, synthesis, molecular modelling and antitumor evaluation of S-glucosylated rhodanines through topo II inhibition and DNA intercalation” (Journal of Enzyme Inhibition and Medicinal Chemistry, 2023)
